The results in this text go back to US20080269213A1, “8-Hydroxyquinoline compounds and methods thereof” (Wyeth, priority 2006, published 2008).

pIC50: −log10 of the molar value. Values joined by “and” are separate entries in the source; they are usually repeats but may differ in a detail not shown here. Identical values can stand only once. Like-named read-outs stand apart in the source and are kept apart here. Bounds are passed on as bounds.

Assay [1] addresses T1, Agg-1 (Homo sapiens, UniProt O75173).
T1 sequence (O75173 213-837): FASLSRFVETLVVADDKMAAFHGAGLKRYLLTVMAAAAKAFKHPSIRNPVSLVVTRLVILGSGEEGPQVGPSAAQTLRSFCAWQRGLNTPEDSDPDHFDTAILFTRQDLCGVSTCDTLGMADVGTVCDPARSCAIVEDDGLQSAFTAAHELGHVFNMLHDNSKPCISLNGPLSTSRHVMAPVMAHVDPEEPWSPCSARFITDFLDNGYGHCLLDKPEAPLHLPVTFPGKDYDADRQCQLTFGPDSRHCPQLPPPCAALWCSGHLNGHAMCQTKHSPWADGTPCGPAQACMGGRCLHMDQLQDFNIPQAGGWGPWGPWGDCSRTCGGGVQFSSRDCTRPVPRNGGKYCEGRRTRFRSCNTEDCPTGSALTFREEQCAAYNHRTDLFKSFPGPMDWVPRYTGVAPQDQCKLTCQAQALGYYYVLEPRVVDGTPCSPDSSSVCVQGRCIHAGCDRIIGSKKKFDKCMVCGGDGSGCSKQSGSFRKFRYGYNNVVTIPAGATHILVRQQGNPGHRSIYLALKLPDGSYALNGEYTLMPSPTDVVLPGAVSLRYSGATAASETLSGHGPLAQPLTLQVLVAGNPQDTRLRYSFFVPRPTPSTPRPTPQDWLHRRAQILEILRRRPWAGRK
The assay is described as follows: Agg-1 FRET assay. Particulars: for inhibition at 0.8 µM: @ 800 nM; for inhibition at 11 µM: @ 11000 nM; for inhibition at 67 µM: @ 67000 nM; for pIC50: read-out: Agg1 IC50; for inhibition at 22.2 µM: @ 22200 nM; for inhibition at 7.4 µM: @ 7400 nM. Format: biochemical. An excerpt:
The Agg-1/Agg-2 FRET data for N-[(8-hydroxyquinolin-2-yl)(phenyl)methyl]-2-phenoxyacetamide and 2-{[(phenoxyacetyl)amino](phenyl)methyl}quinolin-8-yl phenoxyacetate is presented in Table 1.

The target in assay [2] is T2, recombinant human Aggrecanase-2 Agg2-Phe628 (Homo sapiens, UniProt Q9UNA0).
T2 sequence (Q9UNA0 262-628 limits assumed): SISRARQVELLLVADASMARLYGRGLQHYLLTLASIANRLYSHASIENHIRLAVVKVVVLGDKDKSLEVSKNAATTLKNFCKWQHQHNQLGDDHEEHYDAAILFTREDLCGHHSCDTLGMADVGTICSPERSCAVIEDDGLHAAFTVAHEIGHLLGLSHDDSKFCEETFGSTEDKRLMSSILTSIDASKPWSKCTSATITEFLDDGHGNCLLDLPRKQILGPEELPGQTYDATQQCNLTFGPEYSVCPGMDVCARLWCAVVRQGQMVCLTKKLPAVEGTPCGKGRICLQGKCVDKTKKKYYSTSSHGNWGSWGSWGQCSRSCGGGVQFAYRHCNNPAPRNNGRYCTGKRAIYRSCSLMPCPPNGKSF
As to the kind of experiment: Aggrecanase 2 in vitro enzyme assay (Agg-2 FRET, quenched fluorescent peptide substrate). Format: biochemical. Also noted: purified recombinant human Aggrecanase-2 Agg2-Phe628 (MW=41,737); This is a truncated form of full-length human aggrecanase-2; made in house; host or cells: CHO cells. Put shortly: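 Continuous FRET assay with purified truncated human Aggrecanase-2 Agg2-Phe628 (CHO-expressed, 0.5 μg/ml final) and brevican-derived Abz/Dnp peptide (25 μM final) in 50 mM HEPES pH 7.5, 100 mM NaCl, 5 mM CaCl2, 0.1% CHAPS, 5% glycerol. Enzyme preincubated with compound before substrate; fluorescence (ex 340/em 420 nm) followed kinetically 40 min at 30 °C.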

The mark [3] stands for this setting: read-out: Agg-2 FRET Median IC50.

For the compound `O=C(COc1ccccc1)NC(CCc1ccccc1)c1cc(Cl)c2cccnc2c1O` (stereo not shown) [N-[1-(5-chloro-8-hydroxyquinolin-7-yl)-3-phenylpropyl]-2-phenoxyacetamide], the inhibition at 22 µM in assay [1] (@ 22000 nM, read-out: Agg1 %) turned out to be 56%. Besides, the negative-log IC50 (pIC50) in assay [2] (read-out: Agg2 IC50) is 5.77.

As to `O=C(COc1ccccc1)NC(/C=C/c1ccccc1)c1cc(Cl)c2cccnc2c1O` (stereo not shown) [N-[(2E)-1-(5-chloro-8-hydroxyquinolin-7-yl)-3-phenylprop-2-en-1-yl]-2-phenoxyacetamide], the inhibition at 7.5 µM in assay [1] (@ 7500 nM, read-out: Agg1 %) worked out at 50%. Also, the pIC50 in assay [2] (read-out: Agg2 IC50) was 5.80.

Consider `O=C(Cc1ccccc1)NC(/C=C/c1ccccc1)c1cc(Cl)c2cccnc2c1O` (stereo not shown) [N-[(2E)-1-(5-chloro-8-hydroxyquinolin-7-yl)-3-phenylprop-2-en-1-yl]-2-phenylacetamide], for which the inhibition at 20 µM in assay [1] (@ 20000 nM, read-out: Agg1 %) was 45%. Also, the negative logarithm of the IC50 (pIC50) in assay [2] (read-out: Agg2 IC50) and in assay [2] (setting [3]) was 4.30 throughout.

As for `CCC/C=C/C(NC(=O)COc1ccccc1)c1cc(Cl)c2cccnc2c1O` (stereo not shown) [N-[(2E)-1-(5-chloro-8-hydroxyquinolin-7-yl)hex-2-en-1-yl]-2-phenoxyacetamide], the inhibition at 0.8 µM in assay [1] (read-out: Agg1 %) came out at 30%. Besides, the inhibition at […] in assay [2] (@ 2500 nM) turned out to be 47%.

Regarding `CO/C(=C\c1ccccc1)C(NC(=O)COc1ccccc1)c1cc(Cl)c2cccnc2c1O` (stereo not shown) [N-[(2Z)-1-(5-chloro-8-hydroxyquinolin-7-yl)-2-methoxy-3-phenylprop-2-en-1-yl]-2-phenoxyacetamide], the inhibition at 11 µM in assay [1] (read-out: Agg1 %) is 47%. In addition, in assay [2] (@ 2500 nM), the inhibition at […] was determined as 50%.

With `CCCCOc1ccc(C(NC(=O)COc2ccccc2)c2cc(Cl)c3cccnc3c2O)cc1` (stereo not shown) [N-[(4-butoxyphenyl)(5-chloro-8-hydroxyquinolin-7-yl)methyl]-2-phenoxyacetamide], in assay [1] (read-out: Agg1 %), the inhibition at 67 µM was 50%. Further, the inhibition at […] in assay [2] (@ 2500 nM) stood at 55%.

Regarding `O=C(COc1ccccc1)NC(c1ccccc1)c1cc(Cl)c2ccccc2c1O` (stereo not shown) [N-[(4-chloro-1-hydroxy-2-naphthyl)(phenyl)methyl]-2-phenoxyacetamide], the negative logarithm of the IC50 (pIC50) is less than 4.66 in assay [1] and less than 4.17 in assay [2] (read-out: Agg2 IC50). Also, the “Agg-2 FRET Median PCT INHIB” value in assay [2] (concentration not given) was determined as 31%.

As to `Nc1cc(C(NC(=O)COc2ccccc2)c2ccccc2)c(O)c2ncccc12` (stereo not shown) [N-[(5-amino-8-hydroxyquinolin-7-yl)(phenyl)methyl]-2-phenoxyacetamide], the inhibition at 22.2 µM in assay [1] (read-out: Agg1 %) was 57%; in assay [2] (@ 22200 nM), 50%.

For `O=C(CCl)NC(c1ccccc1)c1cc(Br)c2cccnc2c1O` (stereo not shown) [N-[(5-bromo-8-hydroxyquinolin-7-yl)(phenyl)methyl]-2-chloroacetamide], the pIC50 is 4.17 to 4.66 in assay [1] and 5.27 in assay [2] (read-out: Agg2 IC50).

As to `O=C(COc1ccccc1)NC(c1ccccc1)c1cc(Br)c2cccnc2c1O` (stereo not shown) [N-[(5-bromo-8-hydroxyquinolin-7-yl)(phenyl)methyl]-2-phenoxyacetamide], in assay [1] (read-out: Agg1 %), the inhibition at 22.2 µM was found to be 64%. For the same compound, the pIC50 in assay [2] (read-out: Agg2 IC50) and in assay [2] (setting [3]) was 5.61 throughout.

`Cn1c(C(NC(=O)COc2ccccc2)c2cc(Cl)c3cccnc3c2O)cc2ccccc21` (stereo not shown) [N-[(5-chloro-8-hydroxyquinolin-7-yl)(1-methyl-1H-indol-2-yl)methyl]-2-phenoxyacetamide]: the inhibition at 11 µM in assay [1] (read-out: Agg1 %) turned out to be 48%. Further, in assay [2] (@ 2500 nM), the inhibition at […] was 57%.

In the case of `Cn1cc(C(NC(=O)COc2ccccc2)c2cc(Cl)c3cccnc3c2O)c2ccccc21` (stereo not shown) [N-[(5-chloro-8-hydroxyquinolin-7-yl)(1-methyl-1H-indol-3-yl)methyl]-2-phenoxyacetamide], the inhibition at 11 µM in assay [1] (read-out: Agg1 %) was determined as 46%. For the same compound, the inhibition at […] in assay [2] (@ 2500 nM) came to 53%.

On to `O=C(COc1ccccc1)NC(c1cc(Cl)c2cccnc2c1O)c1cccc2[nH]ccc12` (stereo not shown) [N-[(5-chloro-8-hydroxyquinolin-7-yl)(1H-indol-4-yl)methyl]-2-phenoxyacetamide], for which, in assay [1] (read-out: Agg1 %), the inhibition at 0.8 µM was found to be 41%. In addition, the pIC50 in assay [2] (read-out: Agg2 IC50) and in assay [2] (setting [3]) was 5.68 in each case.

Regarding `O=C(COc1ccccc1)NC(c1cc(Cl)c2cccnc2c1O)c1cccc2cc[nH]c12` (stereo not shown) [N-[(5-chloro-8-hydroxyquinolin-7-yl)(1H-indol-7-yl)methyl]-2-phenoxyacetamide], the inhibition at 7.4 µM in assay [1] (read-out: Agg1 %) was found to be 48%. In assay [2] (@ 1900 nM), the inhibition at […] was 69%.

Take `O=C(COc1ccccc1)NC(c1ccc2c(c1)OCCO2)c1cc(Cl)c2cccnc2c1O` (stereo not shown) [N-[(5-chloro-8-hydroxyquinolin-7-yl)(2,3-dihydro-1,4-benzodioxin-6-yl)methyl]-2-phenoxyacetamide]: the inhibition at 7.4 µM in assay [1] (read-out: Agg1 %) was found to be 51%. In assay [2] (read-out: Agg2 IC50), the negative logarithm of the IC50 (pIC50) is 6.07.

Regarding `COc1cc(OC)cc(OCC(=O)NC(c2ccccc2Cl)c2cc(Cl)c3cccnc3c2O)c1` (stereo not shown) [N-[(5-chloro-8-hydroxyquinolin-7-yl)(2-chlorophenyl)methyl]-2-(3,5-dimethoxyphenoxy)acetamide], the pIC50 in assay [1] is approximately 4.66; in assay [2] (read-out: Agg2 IC50), 6.00.

With `CCc1cccc(OCC(=O)NC(c2ccccc2Cl)c2cc(Cl)c3cccnc3c2O)c1` (stereo not shown) [N-[(5-chloro-8-hydroxyquinolin-7-yl)(2-chlorophenyl)methyl]-2-(3-ethylphenoxy)acetamide], the inhibition at 10 µM in assay [1] (@ 10000 nM, read-out: Agg1 %) stood at 48%. In addition, in assay [2] (read-out: Agg2 IC50), the pIC50 is 5.89.

For the compound `O=C(COc1ccc(C2CCCC2)cc1)NC(c1ccccc1Cl)c1cc(Cl)c2cccnc2c1O` (stereo not shown) [N-[(5-chloro-8-hydroxyquinolin-7-yl)(2-chlorophenyl)methyl]-2-(4-cyclopentylphenoxy)acetamide], the pIC50 in assay [1] was less than 4.70; in assay [2] (read-out: Agg2 IC50) it was 5.62.

With `CC(C)c1ccc(OCC(=O)NC(c2ccccc2Cl)c2cc(Cl)c3cccnc3c2O)cc1` (stereo not shown) [N-[(5-chloro-8-hydroxyquinolin-7-yl)(2-chlorophenyl)methyl]-2-(4-isopropylphenoxy)acetamide], in assay [1] (@ 50000 nM, read-out: Agg1 %), the inhibition at 50 µM came to 56%. In addition, in assay [2] (read-out: Agg2 IC50), the negative-log IC50 (pIC50) was 5.85.

For the compound `CCCCCc1ccc(OCC(=O)NC(c2ccccc2Cl)c2cc(Cl)c3cccnc3c2O)cc1` (stereo not shown) [N-[(5-chloro-8-hydroxyquinolin-7-yl)(2-chlorophenyl)methyl]-2-(4-pentylphenoxy)acetamide], the inhibition at 33 µM in assay [1] (@ 33000 nM, read-out: Agg1 %) amounted to 44%. In addition, the inhibition at 22 µM in assay [2] (@ 22000 nM, read-out: Agg2 %) came out at 50%.

For `CCCc1ccc(OCC(=O)NC(c2ccccc2Cl)c2cc(Cl)c3cccnc3c2O)cc1` (stereo not shown) [N-[(5-chloro-8-hydroxyquinolin-7-yl)(2-chlorophenyl)methyl]-2-(4-propylphenoxy)acetamide], the inhibition at […] amounted to 44% in assay [1] (@ 1100 nM, read-out: Agg1 %) and 47% in assay [2] (@ 2500 nM).

Take `O=C(COc1ccccc1)NC(c1ccccc1Cl)c1cc(Cl)c2cccnc2c1O` (stereo not shown) [N-[(5-chloro-8-hydroxyquinolin-7-yl)(2-chlorophenyl)methyl]-2-phenoxyacetamide]: the pIC50 in assay [1] was less than 4.66; in assay [2] (read-out: Agg2 IC50) it was 5.81; in assay [2] (setting [3]), 5.81 and 6.46.

On to `O=C(Cc1ccccc1)NC(c1ccccc1Cl)c1cc(Cl)c2cccnc2c1O` (stereo not shown) [N-[(5-chloro-8-hydroxyquinolin-7-yl)(2-chlorophenyl)methyl]-2-phenylacetamide], for which, in assay [1] (@ 1200 nM, read-out: Agg1 %), the inhibition at […] came out at 29%. Besides, the negative logarithm of the IC50 (pIC50) in assay [2] (read-out: Agg2 IC50) and in assay [2] (setting [3]) was 5.81 throughout.

On to `O=C(COc1ccccc1)NC(c1ccco1)c1cc(Cl)c2cccnc2c1O` (stereo not shown) [N-[(5-chloro-8-hydroxyquinolin-7-yl)(2-furyl)methyl]-2-phenoxyacetamide], for which the inhibition at 67 µM in assay [1] (read-out: Agg1 %) was determined as 51%. Also, the negative logarithm of the IC50 (pIC50) in assay [2] (read-out: Agg2 IC50) was 5.62; in assay [2] (setting [3]), 5.41 and 5.62.

Broadly, the pIC50 is the negative decadic logarithm of the IC50, by convention in mol/L.
